Results taken from US20100183527A1, “Cosmetic Compositions Comprising Sclareolide and Hesperidin Methyl Chalcone” (COGNIS IP MANAGEMENT GMBH, priority 2007, published 2010).

Legend:
Type in all cases: cell-based
[1] = tested on: Melanocytes (B16 cell line); experiment: Number of viable cells by level of cellular proteins (Bradford's method), Example 2 combination; settings: for Amount of cellular proteins: mean +/- SEM
Protocol: (§1) Melanocytes (B16 cell line) were inoculated in standard medium of cell culture with foetal calf serum (FCS). After an incubation for 3 days at 37° C. and CO2=5%, growth medium was exchanged for standard medium with a range of concentrations for each active ingredient to be tested and a control without ingredient. Combinations of active ingredients were tested on the same cultures, in parallel with active ingredients alone. After an incubation of 3 days, the cells were washed by a balanced salt solution, and homogenised in a solution of 0.1 M NaOH. The number of viable cells was determined by evaluation of the level of cellular proteins (Bradford's method) and the level of intracellular melanin was measured by recording the optical density at 475 nm.
(§2) The results are expressed in % against control (cell culture medium without compound) as a mean+/−SEM (Standard Error of Mean) on 5 assays, each in triplicate.

[2] = tested on: Melanocytes (B16 cell line); experiment: Melanogenesis stimulation assay for combination, level of intracellular melanin (optical density at 475 nm); settings: for rate of melanin: mean +/- SEM
Protocol: as §1, §2

[3] = tested on: Melanocytes (B16 cell line); experiment: Number of viable cells by level of cellular proteins (Bradford's method), Example 1; settings: 3 days incubation, mean +/- SEM
Protocol: (§3) Melanocytes (B16 cell line) were inoculated in standard medium of cell culture with foetal calf serum (FCS). After an incubation of 3 day at 37° C. and CO2=5%, growth medium was exchanged for standard medium with a range of concentrations for each active ingredient to be tested and a control without ingredient. After an incubation of 3 days, the level of melanin was measured by recording the optical density at 475 nm. After washing the cells by a balanced salt solution, and homogenisation in a solution of 0.1 M NaOH, the number of viable cells was determined by evaluation of the level of cellular proteins (Bradford's method). The results are expressed in % against control (cell culture medium without compound) as a mean+/−SEM (Standard Error of Mean) on 2 or 3 assays, each in triplicate.

[4] = tested on: Melanocytes (B16 cell line); experiment: Melanogenesis stimulation assay, level of melanin (optical density at 475 nm); settings: 3 days incubation, mean +/- SEM
Protocol: as §3

[5] = Sclareolide 0.000025 % (w/v) alone
[6] = Sclareolide 0.000050 % (w/v) alone

CC1(C)CCC[C@]2(C)[C@H]3CC(=O)O[C@]3(C)CC[C@@H]12 [Sclareolide, (3aR,5aS,9aS,9bR)— decahydro-3a,6,6,9a-tetramethyl naphtho(2,1-b)furan-2(1H)-one]
Amount of cellular proteins [1, 5]: 97 +/− 18 %/control
Amount of cellular proteins [1, 6]: 106 +/− 10 %/control
toxic effects, decrease of amount of cellular proteins (in words) ([1]; concentrations of Table 3, tested separately or mixed): do not show any toxic effects
rate of melanin [2, 5]: 116 +/− 7 %/control
rate of melanin [2, 6]: 120 +/− 6 %/control
rate of melanin synthesis / efficacy (in words) ([2]; very low doses (Table 2)): increased the rate of melanin synthesis
Protein level (rate of cellular proteins) ([3]; Dose 0.0003 % (w/v)): 89 +/− 11 %/control
Protein level (rate of cellular proteins) ([3]; Dose 0.001 % (w/v)): 83 +/− 17 %/control
Melanin level ([4]; Dose 0.0003 % (w/v)): 174 +/− 55 %/control
Melanin level ([4]; Dose 0.001 % (w/v)): 286 +/− 83 %/control
